Laboratory results: patent publication US10052293B2, “Curcumin infused milk beverage and a process for the preparation thereof” (priority 2016, dated 2018)

Key:
[1] = pH of Curcumin dissolved in water; type: physicochemical
Method: The prior art as described in above paragraphs clearly points that Curcumin is unstable in an alkaline solution and loses its golden yellow colour above a pH of 7.5. When pure Curcumin (95%) is dissolved in water, it gives a pH of 6.1. Even at a concentration of 30% solution of Curcumin, prepared by 30 gms of Curcumin in 70 gm hot water, kept in water bath at 55 degrees Celsius for 10 minutes and cooled to 25 degrees Celsius, it has an acidic pH. This Acidic pH of Curcumin is not suitable for making flavoured milk products. Any ingredient having pH less than 6.4 adversely affect milk proteins. The present invention solves this problem by optimizing the exact pH of Curcumin infused milk beverage so that the properties of beverage are preserved and good dispersibility and stability of Curcumin is obtained in the final composition.

[2] = Water solubility of Curcumin; type: physicochemical; settings: 95% pure Curcumin
Method: The particle size of the Curcumin is about 125 micrometers and 95% of Curcumin can pass through 125 micrometers sieve and rest 5% is larger than 125 micrometers. In the final product, the Curcumin concentration is kept at a low concentration of 0.05% (wt/wt percentage for a batch). The concentration of Curcumin can go up to 0.15%. (wt/wt percentage for a batch) for particular milk beverage products. Thus, in an exemplary situation a 160 ml package of this milk beverage has approximately 80 mg of Curcumin and which can go up to 240 mg as required for ingestion.

COc1cc(/C=C/C(=O)CC(=O)/C=C/c2ccc(O)c(OC)c2)ccc1O [Curcumin, diferuloylmethane]
pH ([1]; 30% solution: 30 gms Curcumin in 70 gm hot water, 55 degrees Celsius 10 minutes, cooled to 25 degrees Celsius): acidic pH
pH ([1]; pure Curcumin (95%) dissolved in water): 6.1
water solubility [2]: water insoluble
